From US7838580B2, “Salts of alkyl esters of carboxyethyl(alkyl)phosphinic acid” (Clariant Finance (BVI) Limited, priority 2006, dated 2010)

assay: Differential thermal analysis (decomposition temperature); assay type: physicochemical; conditions: ° C. for 2% weight loss
Experimental: The decomposition temperature and the average particle diameter are determined on a flame retardant of the prior art—Exolit® OP 1230.

SMILES	DTA (decomposition in differential thermal analysis)
COC(=O)CCP(C)(=O)[O-].COC(=O)CCP(C)(=O)[O-].[Mg+2] [Example 11, H3C—P(═O)(OMg1/2)—CH2—CH2—CO2CH3]	282 °C
COC(=O)CCP(C)(=O)[O-].COC(=O)CCP(C)(=O)[O-].[Zn+2] [Example 12, H3C—P(═O)(OZn1/2)—CH2—CH2—CO2CH3]	334 °C
COC(=O)CCP(C)(=O)[O-].COC(=O)CCP(C)(=O)[O-].[Ca+2] [Example 13, H3C—P(═O)(OCa1/2)—CH2—CH2—CO2CH3]	317 °C
COC(=O)CCP(C)(=O)[O-].COC(=O)CCP(C)(=O)[O-].COC(=O)CCP(C)(=O)[O-].[Al+3] [Example 10, H3C—P(═O)(OAl1/3)—CH2—CH2—CO2CH3]	330 °C
CCCCCCCCOC(=O)CCP(C)(=O)[O-].CCCCCCCCOC(=O)CCP(C)(=O)[O-].[Zn+2] [Example 14, H3C—P(═O)(OZn1/2)—CH2—CH2—CO2C8H17]	323 °C
